From patent US8231891B2, “Implantable drug depot for weight control” (Warsaw Orthopedic, Inc., priority 2009, dated 2012)

How the values were obtained:
[1] = Weight gain of rats receiving fluocinolone by daily subcutaneous injection; assay type: in vivo, Wistar rats; details: FIG. 39; systemic subcutaneous injection, 25 ug/kg daily for 22 days
Procedure: Forty Wistar rats were utilized in this study. The forty rats were divided into 4 groups. Group 1 rats (10 in total) each received fluocinolone acetonide via systemic subcutaneous injection at a dosage of 0.5 ug/kg daily. Group 2 rats (10 in total) each received fluocinolone acetonide via systemic subcutaneous injection at a dosage of 5 ug/kg daily. Group 3 rats (10 in total) each received fluocinolone acetonide via systemic subcutaneous injection at a dosage of 25 ug/kg daily. Group 4 rats (10 in total) were the control in this study and received saline injections.

[2] = long term use of the drug; cited from earlier work

In the case of `CC1(C)O[C@@H]2C[C@H]3[C@@H]4C[C@H](F)C5=CC(=O)C=C[C@]5(C)[C@@]4(F)[C@@H](O)C[C@]3(C)[C@]2(C(=O)CO)O1` [fluocinolone acetonide, 6α-,9α-Difluoro-16 α-hydroxyprednisolone 16,17-acetonide], the “body weight increase compared to control rats (saline)” value [1] is reported as “did not exhibit as much body weight increase as control rats”.

For `CCCCCCCCCCC[C@@H](C[C@@H]1OC(=O)[C@H]1CCCCCC)OC(=O)[C@H](CC(C)C)NC=O` [Orlistat], the average weight loss [2] is given as 6.4 lbs.

For `CC(C)CC(N(C)C)C1(c2ccc(Cl)cc2)CCC1` (stereo not shown) [Sibutramine], the average weight loss [2] is listed as 9.3 lbs.

For `Cc1c(C(=O)NN2CCCCC2)nn(-c2ccc(Cl)cc2Cl)c1-c1ccc(Cl)cc1` [Rimonabant], the average weight loss [2] is listed as 10.4 lbs.
